Assay results: paper PMC12217109, “Development of novel benzamide class I selective lysine deacetylase inhibitors as potent anticancer agents” (Journal of Enzyme Inhibition and Medicinal Chemistry, 2025)
Read-outs that look alike come from different tables or passages of the source.

Assays:
NCI/ADR-RES = assay: NCI-60 cytotoxicity screen; format: cell-based; conditions: Homo sapiens, NCI-60, 48 h, ovarian
Excerpt: (§1) Compounds 3–7 were submitted to the US National Cancer Institute (NIH, Bethesda, Maryland) for screening against the NCI-60 panel of human cancer cell lines, as per standard protocol.

HOP-62 = assay: NCI-60 cytotoxicity screen; format: cell-based; conditions: Homo sapiens, NCI-60, 48 h, NSCLC
Excerpt: as §1

COLO205 = assay: NCI-60 cytotoxicity screen; format: cell-based; conditions: Homo sapiens, COLO 205; NCI-60, 48 h, colon
Excerpt: as §1

HCT116 = assay: NCI-60 cytotoxicity screen; format: cell-based; conditions: Homo sapiens, HCT-116; NCI-60, 48 h, colon
Excerpt: as §1

OVCAR-8 = assay: NCI-60 cytotoxicity screen; format: cell-based; conditions: Homo sapiens, NCI-60, 48 h, ovarian
Excerpt: as §1

A549 = assay: NCI-60 cytotoxicity screen; format: cell-based; conditions: Homo sapiens, NCI-60, 48 h, NSCLC
Excerpt: as §1

DU-145 = assay: NCI-60 cytotoxicity screen; format: cell-based; conditions: Homo sapiens, NCI-60, 48 h, prostate
Excerpt: as §1

OVCAR-3 = assay: NCI-60 cytotoxicity screen; format: cell-based; conditions: Homo sapiens, NCI-60, 48 h, ovarian
Excerpt: as §1

SW620 = assay: NCI-60 cytotoxicity screen; format: cell-based; conditions: Homo sapiens, SW-620; NCI-60, 48 h, colon
Excerpt: as §1

SF-268 = assay: NCI-60 cytotoxicity screen; format: cell-based; conditions: Homo sapiens, NCI-60, 48 h, CNS
Excerpt: as §1

SR = assay: NCI-60 cytotoxicity screen; format: cell-based; conditions: Homo sapiens, NCI-60, 48 h, leukaemia
Excerpt: as §1

RPMI-8226 = assay: NCI-60 cytotoxicity screen; format: cell-based; conditions: Homo sapiens, NCI-60, 48 h, leukaemia
Excerpt: as §1

HL-60 = assay: NCI-60 cytotoxicity screen; format: cell-based; conditions: Homo sapiens, NCI-60, 48 h, leukaemia
Excerpt: as §1

HS 578 T = assay: NCI-60 cytotoxicity screen; format: cell-based; conditions: Homo sapiens, NCI-60, 48 h, breast
Excerpt: as §1

IGROV-1 = assay: NCI-60 cytotoxicity screen; format: cell-based; conditions: Homo sapiens, NCI-60, 48 h, ovarian
Excerpt: as §1

U251 = assay: NCI-60 cytotoxicity screen; format: cell-based; conditions: Homo sapiens, U-251; NCI-60, 48 h, CNS
Excerpt: as §1

MCF-7 = assay: NCI-60 cytotoxicity screen; format: cell-based; conditions: Homo sapiens, MCF7; NCI-60, 48 h, breast
Excerpt: as §1

ACHN = assay: NCI-60 cytotoxicity screen; format: cell-based; conditions: Homo sapiens, NCI-60, 48 h, renal
Excerpt: as §1

UO-31 = assay: NCI-60 cytotoxicity screen; format: cell-based; conditions: Homo sapiens, NCI-60, 48 h, renal
Excerpt: as §1

MDA-MB-435 = assay: NCI-60 cytotoxicity screen; format: cell-based; conditions: Homo sapiens, NCI-60, 48 h, melanoma
Excerpt: as §1

CAKI-1 = assay: NCI-60 cytotoxicity screen; format: cell-based; conditions: Homo sapiens, NCI-60, 48 h, renal
Excerpt: as §1

H522 = assay: NCI-60 cytotoxicity screen; format: cell-based; conditions: Homo sapiens, NCI-60, 48 h, NSCLC
Excerpt: as §1

UACC-62 = assay: NCI-60 cytotoxicity screen; format: cell-based; conditions: Homo sapiens, NCI-60, 48 h, melanoma
Excerpt: as §1

KM12 = assay: NCI-60 cytotoxicity screen; format: cell-based; conditions: Homo sapiens, NCI-60, 48 h, colon
Excerpt: as §1

[1] = test system: MCF7 breast cancer cell line; assay: MTT cellular viability assay, MCF7; format: cell-based; conditions: Homo sapiens, 96 h
Method: The human A2780 ovarian (#93112519) and MCF-7 breast (#86012803) cancer cell lines were obtained from the European Cell Culture Collection (ECACC; Salisbury, UK). The human cardiac ventricular AC16 cell line (#SCC109) was obtained from Merck/Millipore (UK). The A2780 and MCF-7 cell lines were maintained in RPMI-1640 medium and the AC16 cell line was maintained in DMEM/F12 medium. Culture medium of all three cell lines was supplemented with 10% heat-inactivated foetal bovine serum (FBS) and 2 mM L-glutamine, with the cells maintained in a humidified 5% CO2 atmosphere at 37 °C. The media was changed every 72h and the cells passaged via trypsinisation (Trypsin EDTA, 0.25%) before reaching confluency.
Cytotoxicity of each compound against the cell lines was assessed using the MTT assay. Cells were seeded in three replicates into 96-well plates at a density of 2 × 10^3/well for 24h to facilitate cell attachment. Media was replaced with that containing either test compound (0–10µM) for A2780 and MCF7 cell lines, single concentration (10 µM) test compound for AC16 cell line, or drug vehicle (dimethyl sulphoxide; DMSO) and the cells incubated for a further 96 h at 37 °C in a humidified 5% CO2 atmosphere. […] Chemosensitivity was thereafter assessed using a standard 3-[4, 5-dimethylthiazolyl]-2,5-diphenyltetrazolium bromide (MTT) assay, with the optical density determined at 540 nm as an indicator of cellular viability.

HeLa nuclear KDACs = assay: Fluor-de-Lys HDAC fluorometric activity assay with HeLa nuclear extract; format: biochemical; conditions: for IC50: HeLa nuclear extract, up to 20 µM, read-out: HDAC Inhibition IC50; for IC20: concentration inhibiting HDAC activity by 20%, read-out: HDAC Inhibition IC20
Method: Total zinc-dependent KDAC (classes I, II and IV) activity was measured using the Fluor-de-Lys^TM HDAC fluorometric activity assay kit (BioMol, Exeter, UK), as per manufacturers protocol. Briefly, HeLa nuclear extract, potential inhibitor (5 nM–20 μM) and assay buffer were incubated in a 96-well fluorometric plate at 37 °C for 15 min. Acetylated substrate (100 μM) was added and the mixture incubated at 37 °C for a further 20 min. The developer was added and the mixture incubated at 37 °C for a further 15 min. Fluorescence was measured using a microplate reader (λex = 360 nm, λem = 460 nm). Percentage KDAC activity and thus KDAC inhibition was determined by quantification of fluorescence obtained in the presence versus absence of the respective inhibitor.

[2] = test system: A2780 ovarian cancer cell line; assay: MTT cellular viability assay, A2780; format: cell-based; conditions: Homo sapiens
TK-10 = assay: NCI-60 cytotoxicity screen; format: cell-based, human; conditions: for IC50: Homo sapiens, TK-10, NCI-60, 48 h, renal
Excerpt: as §1

UACC-257 = assay: NCI-60 cytotoxicity screen; format: cell-based, human; conditions: for IC50: Homo sapiens, UACC-257, NCI-60, 48 h, melanoma
Excerpt: as §1

H322M = assay: NCI-60 cytotoxicity screen; format: cell-based, human; conditions: for IC50: Homo sapiens, NCI-H322M, NCI-60, 48 h, NSCLC
Excerpt: as §1

[3] = listed as A2780* of Table 4, ovarian, values as in Tables 1 and 2 (MTT), read-out: A2780* cytotoxicity IC50
[4] = A2780, MTT, 96 h, read-out: A2780 IC50

Compound | IC50 (NCI/ADR-RES) | IC50 (HOP-62) | IC50 (COLO205) | IC50 (HCT116) | IC50 (OVCAR-8) | IC50 (A549) | IC50 (DU-145) | IC50 (OVCAR-3) | IC50 (SW620) | IC50 (SF-268) | IC50 (SR) | IC50 (RPMI-8226) | IC50 (HL-60) | IC50 (HS 578 T) | IC50 (IGROV-1) | IC50 (U251) | IC50 (MCF-7) | IC50 (ACHN) | IC50 (UO-31) | IC50 (MDA-MB-435) | further results
Nc1ccccc1NC(=O)c1ccc(CNC(=O)OCc2cccnc2)cc1 [Compound 1, Entinostat, reference compound] | 2.38 µM | 2.06 µM | 2 µM | 0.8 µM | 1.03 µM | 3.28 µM | 2.26 µM | 1.74 µM | 1.3 µM | 1.86 µM | 0.53 µM | 0.9 µM | 0.85 µM | 2.33 µM | 3.95 µM | 2.03 µM | 0.64 µM | 2.33 µM | 1.17 µM | 0.96 µM | IC50 (CAKI-1): 1.17 µM; IC50 (H522): 0.7 µM; IC50 (UACC-62): 0.28 µM; IC50 (KM12): 4.31 µM; IC50 [1]: 0.4 ± 0.1 µM; IC50 (HeLa nuclear KDACs): 3 ± 0.2 µM; IC50 [2, 3]: 0.6 µM; IC50 (TK-10): 0.29 µM; IC50 (UACC-257): 1.43 µM; IC50 (H322M): 4.79 µM
C=C(CN1CCN(c2ccccc2C(F)(F)F)CC1)c1ccc(C(=O)Nc2ccccc2N)cc1 [Compound 3, N-(2-aminophenyl)-4–(3-(4–(2-(trifluoromethyl)phenyl)piperazin-1-yl)prop-1-en-2-yl)benzamide] | 1.87 µM | 4.76 µM | 11.5 µM | 3.09 µM | 3.84 µM | 4.17 µM | 7.52 µM | 5.92 µM | 3.4 µM | 4.55 µM | 2.36 µM | 0.16 µM | 0.04 µM | 12.8 µM | 6.03 µM | 4.63 µM | 4.48 µM | 7.19 µM | 1 µM | 2.72 µM | IC50 (CAKI-1): 7.96 µM; IC50 (H522): 1.91 µM; IC50 (UACC-62): 9.16 µM; IC50 (KM12): 2.04 µM; IC50 [1]: 7.3 ± 0.4 µM; IC50 (HeLa nuclear KDACs): > 20 µM; IC20 (HeLa nuclear KDACs): 1.5 ± 0.8 µM; IC50 [2, 4]: 7.5 ± 0.7 µM; IC50 [2, 3]: 7.5 µM; IC50 (TK-10): 4.63 µM; IC50 (UACC-257): 4.67 µM; IC50 (H322M): 11.4 µM
C=C(CN1CCN(c2cccc(C(F)(F)F)c2)CC1)c1ccc(C(=O)Nc2ccccc2N)cc1 [Compound 4, N-(2-aminophenyl)-4–(3-(4–(3-(trifluoromethyl)phenyl)piperazin-1-yl)prop-1-en-2-yl)benzamide] | 0.11 µM | 0.7 µM | 3.45 µM | 1.14 µM | 1.4 µM | 1.48 µM | 1.36 µM | 0.55 µM | 1.28 µM | 1.43 µM | 0.02 µM | 0.32 µM | 0.12 µM | 0.49 µM | 14.2 µM | 1.17 µM | 1.24 µM | 0.92 µM | 2.39 µM | 0.14 µM | IC50 (CAKI-1): 0.63 µM; IC50 (H522): 6.14 µM; IC50 (UACC-62): 0.41 µM; IC50 (KM12): 0.49 µM; IC50 [1]: 1.4 ± 0.1 µM; IC50 (HeLa nuclear KDACs): > 20 µM; IC20 (HeLa nuclear KDACs): 5 ± 1.5 µM; IC50 [2, 4]: 1.6 ± 0.5 µM; IC50 [2, 3]: 1.6 µM; IC50 (TK-10): 0.81 µM; fold improvement in cytotoxicity sensitivity compared to 7, TK-10 (TK-10; TK-10 renal): ~20 fold; IC50 (UACC-257): 0.76 µM; fold improvement in cytotoxicity sensitivity compared to 7, UACC-257 (UACC-257; UACC-257 melanoma): ~35 fold; fold improvement in cytotoxicity sensitivity compared to 7, H322M (H322M; H322M NSCLC): approximately 100 fold; IC50 (H322M): 0.94 µM
C=C(CN1CCN(c2ccc(C(F)(F)F)cc2)CC1)c1ccc(C(=O)Nc2ccccc2N)cc1 [Compound 5, N-(2-aminophenyl)-4–(3-(4–(4-(trifluoromethyl)phenyl)piperazin-1-yl)prop-1-en-2-yl)benzamide] | 3.37 µM | 8.38 µM | > 100 µM | 11.4 µM | 6.95 µM | 6.43 µM | 21 µM | 12 µM | 78.9 µM | 6.78 µM | 1.1 µM | 0.4 µM | 0.08 µM | 22.5 µM | 18.2 µM | 6.25 µM | 10.9 µM | 9.64 µM | 0.97 µM | 25.2 µM | IC50 (CAKI-1): 6.08 µM; IC50 (H522): 1.85 µM; IC50 (UACC-62): 23 µM; IC50 (KM12): 7.64 µM; IC50 [1]: 0.4 ± 0.4 µM; IC50 (HeLa nuclear KDACs): > 20 µM; IC20 (HeLa nuclear KDACs): 5.8 ± 1.8 µM; IC50 [2, 4]: 1.9 ± 0.4 µM; IC50 [2, 3]: 1.9 µM; IC50 (TK-10): 21 µM; IC50 (UACC-257): 2.39 µM; IC50 (H322M): 40.5 µM
C=C(CN1CCN(c2ccccn2)CC1)c1ccc(C(=O)Nc2ccccc2N)cc1 [Compound 6, N-(2-aminophenyl)-4–(3-(4-(pyridin-2-yl)piperazin-1-yl)prop-1-en-2-yl)benzamide] | 1.31 µM | 1.32 µM | 1.71 µM | 2.5 µM | 1.5 µM | 2.39 µM | 2.52 µM | 1.24 µM | 1.71 µM | 1.66 µM | 5.33 µM | 1.6 µM | 2.19 µM | 1.11 µM | 1.57 µM | 1.48 µM | 3.16 µM | 1.5 µM | 1.8 µM | 0.53 µM | IC50 (CAKI-1): 1.19 µM; IC50 (H522): 1.56 µM; IC50 (UACC-62): 1.41 µM; IC50 (KM12): 0.94 µM; IC50 [1]: 3.2 ± 0.8 µM; IC50 (HeLa nuclear KDACs): > 20 µM; IC20 (HeLa nuclear KDACs): > 10 µM; IC50 [2, 4]: 3.5 ± 1.3 µM; IC50 [2, 3]: 3.5 µM; IC50 (TK-10): 1.85 µM; IC50 (UACC-257): 2.32 µM; IC50 (H322M): 3.12 µM
